Values joined by “and” are separate entries in the source; they are usually repeats but may differ in a detail not shown here. Equal entries are not always repeated. Where two headings read alike, the source gives them in different places.
Key:
[1] = test system: Trypanosoma cruzi; test: Anti-protozoan data: T. cruzi IC50; format: cell-based; conditions: read-out: T. cruzi IC50
[2] = test system: L. donovani axenic amastigotes; test: In vitro anti-leishmania activity (IC50 vs. L. donovani axenic amastigotes); format: cell-based; conditions: Leishmania donovani
[3] = test system: Mycobacterium tuberculosis; test: Compounds tested against Mycobacterium tuberculosis (MIC90); format: cell-based
[4] = test system: Candida albicans; test: Anti-fungal data: Candida albicans; format: cell-based; conditions: for MFC / MIC80: strain A39; for MIC: strain A39, read-out: Candida albicans (A39) MIC100
[5] = test system: Plasmodium falciparum; test: Anti-protozoan data: P. falcip. IC50; format: cell-based; conditions: read-out: P. falcip. IC50
[6] = test system: DNA; test: DNA binding ΔTm
[7] = in vitro
[8] = test system: Aspergillus fumigatus; test: Anti-fungal data: Aspergillus fumigatus; format: cell-based; conditions: for MFC / MIC80: strain DUMC 168.95; for MIC: strain DUMC 168.95, read-out: Aspergillus. Fumigatus (DUMC 168.95) MIC100
[9] = test system: Trypanosoma brucei rhodesiense; test: Anti-protozoan data: T.b.r. IC50; format: cell-based; conditions: read-out: T.b.r. IC50
[10] = test system: Cryptococcus neoformans; test: Anti-fungal data: Cryptococcus neoformans; format: cell-based
[11] = Tables VI(a), VI(c), read-out: Leishmania donovani IC50
[12] = axenic amastigotes, Tables I-V, read-out: IC50 vs. L. donovani
[13] = Table VII(b), read-out: M. tb MIC90

| Compound | IC50 ([1]; Tables VI(a), VI(c)) | IC50 [2, 11] | IC50 [2, 12] | MIC90 ([3]; read-out: M. tb. MIC90) | MFC [4] | MIC80 [4] | MIC [4] | IC50 ([5]; Tables VI(a), VI(c)) | DNA binding Δ Tm ([6]; Tables VI(a), VI(c)) | melting point | IC50 [7] | MFC [8] | MIC80 [8] | MIC [8] | IC50 ([9]; Tables VI(a), VI(c)) | also measured |
| --- | --- | --- | --- | --- | --- | --- | --- | --- | --- | --- | --- | --- | --- | --- | --- | --- |
| Cl.Cl.N=C(N)c1ccc(OCCCOc2cccc(-c3cc4cc(C(=N)N)ccc4o3)c2)cc1 [Compound 32, 2-(3-(3-(4-Carbamimidoylphenoxy)propoxy)phenyl)benzofuran-5-carboxamidine dihydrochloride] | 16.1 µM | 3.42 ± 0.9 µM | 3.42 ± 0.9 µM | 0.53 µg/mL and 1 µM | 10 µg/mL | ≤ 1 µg/mL | 10 µg/mL | 0.0397 µM | 18.7 | 175 to 178 °C | 10.4 µM | > 100 µg/mL | 10 µg/mL | 100 µg/mL | 0.907 µM |  |
| CC(C)NC(=N)c1ccc(OCCCOc2cccc(-c3cc4cc(C(=N)NC(C)C)ccc4o3)c2)cc1.Cl.Cl [Compound 33, 2-(3-(3-(4-(N-Isopropylcarbamimidoyl)phenoxy)propoxy)phenyl)-N-isopropylbenzofuran-5-carboxamidine dihydrochloride] | 93.6 µM | 4.49 ± 0.56 µM | 4.49 ± 0.56 µM | < 0.62 µg/mL and < 1 µM | 10 µg/mL | ≤ 1 µg/mL | 10 µg/mL | 0.0613 µM | 14.8 | 205 to 208 °C | 26.5 µM | > 100 µg/mL | 10 µg/mL | 100 µg/mL | 0.547 µM |  |
| CC(C)NC(=N)c1ccc(OCCCOc2ccc(-c3cc4cc(C(=N)NC(C)C)ccc4o3)cc2)cc1.Cl.Cl [Compound 45, 2-(4-(3-(4-(N-Isopropylcarbamimidoyl)phenoxy)propoxy)phenyl)-N-isopropylbenzofuran-5-carboxamidine dihydrochloride] | 70.4 µM | 1.56 ± 0.58 µM |  | 1.12 µg/mL and 1.86 µM | 10 µg/mL | 10 µg/mL | 10 µg/mL | 0.0418 µM |  | 301 to 302 °C | 45.6 µM |  | 100 µg/mL | > 100 µg/mL | 0.0409 µM |  |
| Cl.Cl.c1cc(C2=NCCN2)ccc1OCCCCCCOc1ccc(-c2cc3ccc(C4=NCCN4)cc3o2)cc1 [Compound 79, 2-(2-(4-(6-(4-(4,5-Dihydro-1H-imidazol-2-yl)phenoxy)hexyloxy)phenyl)benzofuran-6-yl)-4,5-dihydro-1H-imidazole dihydrochloride] | 2.15 µM | 15.3 ± 1.72 µM | 15.3 ± 1.72 µM | 2.14 µg/mL and 3.51 µM |  |  |  | 0.0316 µM |  | 265 to 269 °C | 3.44 µM |  |  |  | 0.224 µM |  |
| N=C(NO)c1ccc(OCCCOc2ccc(-c3cc4cc(C(=N)NO)ccc4o3)cc2)cc1 [Compound 182, 2-(4-(3-(4-(N-Hydroxycarbamimidoyl)phenoxy)propoxy)phenyl)-N-hydroxybenzofuran-5-carboxamidine] | 1.7 µM | 5.02 ± 0.93 µM |  | 0.65 µg/mL and 1.2 µM |  |  |  | 1.4 µM | 1.10 |  | 2.64 µM |  |  |  | 1.34 µM |  |
| CONC(=N)c1ccc2oc(CCCCCc3cc4cc(C(=N)NOC)ccc4o3)cc2c1 [Compound 193, 2-(5-(5-(N-Methoxycarbamimidoyl)benzofuran-2-yl)pentyl)-N-methoxybenzofuran-5-carboxamidine] | 19.1 µM | > 100 µM |  | 4.25 µg/mL and 7.88 µM |  |  |  | > 1.86 µM |  |  | 35.6 µM |  |  |  | > 18.6 µM |  |
| Cl.Cl.N=C(N)c1ccc(OCCCOc2cccc(-c3cc4ccc(C(=N)N)cc4o3)c2)cc1 [Compound 56, 2-(3-(3-(4-Carbamimidoylphenoxy)propoxy)phenyl)benzofuran-6-carboxamidine dihydrochloride] | 11.1 µM | 11.2 ± 0.28 µM | 11.2 ± 0.28 µM | 1.02 µg/mL and 1.93 µM |  |  |  | 0.084 µM |  | 196 to 200 °C | 19.8 µM |  |  |  | 0.327 µM |  |
| Cl.Cl.c1cc(OCCCCCCOc2ccc(C3=NCCN3)cc2)cc(-c2cc3ccc(C4=NCCN4)cc3o2)c1 [Compound 67, 2-(2-(3-(6-(4-(4,5-Dihydro-1H-imidazol-2-yl)phenoxy)hexyloxy)phenyl)benzofuran-6-yl)-4,5-dihydro-1H-imidazole dihydrochloride] | 3.67 µM | 43.5 ± 0.69 µM | 43.5 ± 0.69 µM | 18 µg/mL and 29.4 µM | 1.56 µg/mL | 1.56 µg/mL | 1.56 µg/mL | 0.0412 µM |  | 182 to 186 °C | 1.79 µM | > 100 µg/mL | 12.5 µg/mL | 12.5 µg/mL | 0.681 µM | MFC ([10]; strain H99): 1.56 µg/mL; MIC80 ([10]; strain H99): 0.781 µg/mL; MIC ([10]; strain H99, read-out: Cryptococcus neoformans (H99) MIC100): 1.56 µg/mL |
| CC(C)NC(=N)c1ccc(OCCCCOc2ccc(-c3cc4cc(C(=N)NC(C)C)ccc4o3)cc2)cc1.Cl.Cl [Compound 48, 2-(4-(4-(4-(N-Isopropylcarbamimidoyl)phenoxy)butoxy)phenyl)-N-isopropylbenzofuran-5-carboxamidine dihydrochloride] | 21 µM | 2.97 ± 0.16 µM |  | 59.4 µg/mL and 95.6 µM | 100 µg/mL | 100 µg/mL | 100 µg/mL | 0.302 µM | 13.3 | 305 °C | 6.92 µM | > 100 µg/mL | 10 µg/mL | 100 µg/mL | 1.11 µM |  |
| Cl.Cl.c1cc(C2=NCCN2)ccc1OCCCCOc1ccc(-c2cc3cc(C4=NCCN4)ccc3o2)cc1 [Compound 49, 2-(2-(4-(4-(4-(4,5-Dihydro-1H-imidazol-2-yl)phenoxy)butoxy)phenyl)benzofuran-5-yl) -4,5-dihydro-1H-imidazole dihydrochloride] | 4.51 µM | 9.21 ± 2.25 µM | 9.21 ± 2.25 µM |  |  | 100 µg/mL | > 100 µg/mL | 0.0641 µM | 18.8 | 291 to 293 °C | 2.88 µM |  | 100 µg/mL | > 100 µg/mL | 0.374 µM |  |
| CC(C)NC(=N)c1cccc(-c2cc3cc(C(=N)NC(C)C)ccc3o2)c1 [Compound 167, 2-(3-(N-isopropylcarbamimidoyl)phenyl)-N-isopropylbenzofuran-5-carboxamidine] |  |  | 13.4 ± 0.64 µM |  |  |  |  |  |  |  | > 199 µM |  |  |  |  | IC50 [1]: > 199 µM; IC50 ([2]; read-out: L. Donovani IC50): 13.4 ± 0.64 µM; MIC90 [3, 13]: > 57.8 µg/mL and > 128 µM; IC50 [5]: 0.331 µM; IC50 [9]: 0.473 µM |
| CC(C)NC(=N)c1ccc(OCCCCCOc2cccc(-c3cc4cc(C(=N)NC(C)C)ccc4o3)c2)cc1.Cl.Cl [Compound 39, 2-(3-(5-(4-(N-Isopropylcarbamimidoyl)phenoxy)pentyloxy)phenyl)-N-isopropylbenzofuran-5-carboxamidine dihydrochloride] | 26 µM | 6.86 ± 2.1 µM | 6.86 ± 2.1 µM | 1.12 µg/mL and 1.8 µM | 100 µg/mL | 10 µg/mL | 100 µg/mL | 0.123 µM | 20.8 | 225 to 227 °C | 10.1 µM | > 100 µg/mL | 10 µg/mL | 100 µg/mL | 0.452 µM |  |
| CC(C)NC(=N)c1ccc(OCCCCCCOc2ccc(-c3cc4cc(C(=N)NC(C)C)ccc4o3)cc2)cc1.Cl.Cl [Compound 54, 2-(4-(6-(4-(N-Isopropylcarbamimidoyl)phenoxy)hexyloxy)phenyl)-N-isopropylbenzofuran-5-carboxamidine dihydrochloride] | 1.21 µM | 5.4 ± 1.46 µM |  | 65.8 µg/mL and 102 µM |  | > 100 µg/mL | > 100 µg/mL | 0.0634 µM |  | 288 to 291 °C | 0.85 µM |  | > 100 µg/mL | > 100 µg/mL | 0.211 µM |  |
| N=C(NO)c1ccc(-c2cc3cc(C(=N)NO)ccc3o2)cc1 [Compound 178, 2-(4-(N-Hydroxycarbamimidoyl)phenyl)-N-hydroxybenzofuran-5-carboxamidine] |  |  |  |  |  |  |  |  |  |  | > 235 µM |  |  |  |  | IC50 [1]: > 235 µM; IC50 ([2]; read-out: L. Donovani IC50): > 100 µM; MIC90 [3, 13]: > 128 µM; IC50 [5]: 0.783 µM; DNA binding Δ Tm [6]: 4.50; IC50 [9]: 23.6 µM |
| Cl.Cl.c1cc(C2=NCCN2)ccc1OCCCCCOc1ccc(-c2cc3cc(C4=NCCN4)ccc3o2)cc1 [Compound 52, 2-(2-(4-(5-(4-(4,5-Dihydro-1H-imidazol-2-yl)phenoxy)pentyloxy)phenyl)benzofuran-5-yl)-4,5-dihydro-1H-imidazole dihydrochloride] | 2.27 µM | 39.4 ± 7.35 µM |  | 10.1 µg/mL and 16.9 µM | 10 µg/mL | 10 µg/mL | 10 µg/mL | 0.06 µM |  | 258 to 261 °C | 0.87 µM | > 100 µg/mL | 10 µg/mL | 100 µg/mL | 0.338 µM |  |
| N=C(N)c1cccc(-c2cc3cc(C(=N)N)ccc3o2)c1 [Compound 166, 2-(3-carbamimidoylphenyl)benzofuran-5-carboxamidine] |  |  | 5.82 ± 0.06 µM |  |  |  |  |  |  |  | 21.2 µM |  |  |  |  | IC50 [1]: 23.4 µM; IC50 ([2]; read-out: L. Donovani IC50): 5.82 ± 0.06 µM; MIC90 [3, 13]: 11.9 µg/mL and 31.6 µM; IC50 [5]: 0.0191 µM; IC50 [9]: 0.0241 µM |

— patent publication US20080114047A1 (priority 2003, published 2008)
